The experiment concerns the target T1, Human M4 receptors (Homo sapiens, UniProt P08173).
T1 construct: expressed in transfected cells
T1 sequence (P08173 1-479): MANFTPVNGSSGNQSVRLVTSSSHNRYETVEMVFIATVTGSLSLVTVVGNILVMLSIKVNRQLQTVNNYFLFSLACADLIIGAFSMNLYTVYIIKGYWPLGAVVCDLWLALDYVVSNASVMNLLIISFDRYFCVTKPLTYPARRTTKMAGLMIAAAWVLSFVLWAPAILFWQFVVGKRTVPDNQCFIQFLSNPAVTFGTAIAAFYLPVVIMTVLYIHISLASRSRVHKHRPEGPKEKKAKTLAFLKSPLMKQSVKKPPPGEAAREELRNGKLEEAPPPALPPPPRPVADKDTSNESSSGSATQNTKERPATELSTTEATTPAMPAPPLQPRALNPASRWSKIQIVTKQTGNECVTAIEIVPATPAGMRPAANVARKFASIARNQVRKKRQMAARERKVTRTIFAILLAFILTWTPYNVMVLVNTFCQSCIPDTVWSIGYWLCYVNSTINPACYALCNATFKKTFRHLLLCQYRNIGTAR
The experiment in a line: M4 PAM cAMP assay (GloSensor). Type of experiment: cell-based. The conditions noted are these: HEK293 GloSensor cells expressing hM4, with EC20 acetylcholine and isoproterenol, geometric mean of 2-4 determinations unless footnoted (b: >=5, c: single); for EC50 Mean Asymptote Maximum (%) / Emax: Emax = maximum asymptote of fitted dose response curve; for Emax: read-out: EC50 Mean Asymptote Maximum (%). As for the experimental part: The M4 cAMP assay was designed to determine the potency and efficacy of muscarinic positive allosteric modulators (PAMs). Human M4 receptors were stably expressed in Human embryonic kidney (HEK293) cells expressed with the Promega GloSensor™ cAMP technology.
HEK293 GloSensor cells expressing hM4 cells were cultured in growth media containing DMEM with 10% FBS, 1% Penicillin/Streptomycin, 500 μg/mL G418, 200 μg/mL Hygomycin B, and 1% Glutamax. When cells had grown to 80%-90% confluency, cells were harvested and seeded at a density of 25,000 cells/40 μL well, in a 384 white walled plates (Becton Dickinson 356661). Plates were incubated at 37 degrees C. and 5% CO2 for use after 24 hours.
Compound Preparation for Activator Screen:
Test compounds were initially prepared as 100% DMSO stock solutions, then transferred and serially diluted in 384-well compound plates (Matrix #4325). Each compound was tested at 10 concentrations in duplicate per experiment. Compound plates are spotted with 0.2 μL/well activator at 400 times the final assay concentration. Positive and negative controls for the compound alone activator response was 10 μM acetylcholine (Sigma # A2661) and DMSO, respectively. EC20 of acetylcholine was also used to define PAM activities.
Promega GloSensor™reagent (Promega # E1291) had previously been aliquotted. For each experiment, a stock solution of GloSensor™ was thawed out and equilibration medium was prepared with 88% CO2-independent media (Invitrogen #18045088), 10% fetal bovine serum and 2% GloSensor™ cAMP Reagent stock solution. Stock solution was mixed. Culture media in cell plates was discarded, then replaced with 40 μL/well pre-warmed equilibration media, then incubated in the dark at room temperature for 2 hours. During the incubation, stimulation media containing agonist and EC20 acetylcholine was prepared. CO2-independent media containing 50 […] Isoproterenol representing an EC80 of b-adrenergic receptor activity (Sigma #16504, 400 times final concentration) and EC20 acetylcholine in 1.25% DMSO was added to all columns of the compound plate, with the exception of column 12 to allow for EC0 control. […] Compounds are now 5 times the final assay concentration. The plate was mixed using a plate agitator. At the end of the 2 hour GloSensor™ incubation, add 10 μL of the CO2-independent media containing agonist, EC20 acetylcholine and isoproterenol to the cell plate. Cell plate was then incubated for 10 minutes at room temperature, and then read using an EnVision plate reader (Perkin Elmer).
Data was exported from the EnVision plate reader. The percent effect for each well was determined using the mean values for the positive and negative controls on each plate for each read, specifically 100*(compound−negative control)/(positive control−negative control). Dose response curves were fitted to the compound percent effect data using a 4-parameter logistic fit model. Data was reported as EC50 and Emax, with the Emax as the maximum asymptote of the fitted dose response curve.
(In general: Cyclic AMP is a second messenger, typically raised through Gs and lowered through Gi signalling.)

The EC50 is the concentration that produces a half-maximal response. As for `CNc1nc(C)c(C)c2c1CN(C(=O)CC1CN(c3ccnc(C(F)(F)F)c3)C1)C2C` (single isomer, unassigned) [Example 43, 2-{1-[2-(trifluoromethyl)pyridin-4-yl]azetidin-3-yl}-1-[1,6,7-trimethyl-4-(methylamino)-1,3-dihydro-2H-pyrrolo[3,4-c]pyridin-2-yl]ethanone], the “EC50 Mean Asymptote Maximum (%)” value is 152^c % and the EC50 is 3670 nM.
Turning to `CNc1nc(C)c(C)c2c1CN(C(=O)[C@@H]1CCOC1)C2` [Example 59, [6,7-dimethyl-4-(methylamino)-1,3-dihydro-2H-pyrrolo[3,4-c]pyridin-2-yl][(3R)-tetrahydrofuran-3-yl]methanone], the Emax is 95.5% and the 50% effective concentration (EC50) was 149 nM.
The corresponding values for `CNc1nc(C)c(C)c2c1CN(C(=O)c1cnn(C)c1)C2` [Example 48, [6,7-dimethyl-4-(methylamino)-1,3-dihydro-2H-pyrrolo[3,4-c]pyridin-2-yl](1-methyl-1H-pyrazol-4-yl)methanone] are 96.8% and 8.46 nM.
The corresponding values for `COc1nc(C)c(C)c2c1CN(C(=O)CC1CN(c3cccnc3)C1)C2` [Example 53, 1-(4-methoxy-6,7-dimethyl-1,3-dihydro-2H-pyrrolo[3,4-c]pyridin-2-yl)-2-[1-(pyridin-3-yl)azetidin-3-yl]ethanone] are 92.1% and 43.8 nM.
The corresponding values for `CNc1nc(C)c(C)c2c1CN(C(=O)CC1CN(c3ccc(F)nc3)C1)C2` [Example 51, 1-[6,7-dimethyl-4-(methylamino)-1,3-dihydro-2H-pyrrolo[3,4-c]pyridin-2-yl]-2-[1-(6-fluoropyridin-3-yl)azetidin-3-yl]ethanone] are 97.7% and 3.26 nM.
Consider `Cc1nc(N(C)C)c2c(c1C)CN(C(=O)CC1CN(c3cccnc3)C1)C2` [Example 17, 1-[4-(dimethylamino)-6,7-dimethyl-1,3-dihydro-2H-pyrrolo[3,4-c]pyridin-2-yl]-2-[1-(pyridin-3-yl)azetidin-3-yl]ethanone], for which the Emax is 102% and the EC50 is 17.9 nM.
The corresponding values for `Cc1nc(NCC2CC2)c2c(c1C)CN(C(=O)CC1CN(c3ccncn3)C1)C2` [Example 22, 1-{4-[(cyclopropylmethyl)amino]-6,7-dimethyl-1,3-dihydro-2H-pyrrolo[3,4-c]pyridin-2-yl}-2-[1-(pyrimidin-4-yl)azetidin-3-yl]ethanone] are 99.7% and 0.626 nM.
Consider `CNc1nc(C)c(C)c2c1CN(C(=O)C[C@@H]1C[C@H]1c1ccc(F)cc1)C2` (single isomer, unassigned) [Example 40, 1-[6,7-dimethyl-4-(methylamino)-1,3-dihydro-2H-pyrrolo[3,4-c]pyridin-2-yl]-2-[trans-2-(4-fluorophenyl)cyclopropyl]ethanone], for which the “EC50 Mean Asymptote Maximum (%)” value is 121^c % and the half-maximal effective concentration (EC50) worked out at 6.77 nM.
`CNc1nc(C)c(C)c2c1CN(C(=O)CCc1ccc(C#N)cc1)C2` [Example 31, 4-{3-[6,7-dimethyl-4-(methylamino)-1,3-dihydro-2H-pyrrolo[3,4-c]pyridin-2-yl]-3-oxopropyl}benzonitrile]: the Emax was determined as 102% and the EC50 is 12.1 nM.
With `CNc1nc(C)c(C)c2c1CN(C(=O)C[C@@H]1C[C@H]1c1ccc(F)nc1)C2` (single isomer, unassigned) [Example 15, 1-[6,7-dimethyl-4-(methylamino)-1,3-dihydro-2H-pyrrolo[3,4-c]pyridin-2-yl]-2-[trans-2-(6-fluoropyridin-3-yl)cyclopropyl]ethanone], the “EC50 Mean Asymptote Maximum (%)” value came to 148% and the EC50 came to 795 nM.
The corresponding values for `CNc1nc(C)c(C)c2c1CN(C(=O)CC1CN(c3ccnc(OC(F)F)c3)C1)C2C` (single isomer, unassigned) [Example 49, 2-{1-[2-(difluoromethoxy)pyridin-4-yl]azetidin-3-yl}-1-[1,6,7-trimethyl-4-(methylamino)-1,3-dihydro-2H-pyrrolo[3,4-c]pyridin-2-yl]ethanone] are 140^c % and 754 nM.
For the molecule `Cc1[nH]c(=O)c2c(c1C)CN(C(=O)CC1CN(c3cccnc3)C1)C2` [Example 21, 6,7-dimethyl-2-{[1-(pyridin-3-yl)azetidin-3-yl]acetyl}-1,2,3,5-tetrahydro-4H-pyrrolo[3,4-c]pyridin-4-one], the Emax was 99.7% and a half-maximal response (EC50) required 8.72 nM.
The corresponding values for `Cc1nc(C(F)F)c2c(c1C)CN(C(=O)CC1CN(c3cccnc3)C1)C2` [Example 18, 1-[4-(difluoromethyl)-6,7-dimethyl-1,3-dihydro-2H-pyrrolo[3,4-c]pyridin-2-yl]-2-[1-(pyridin-3-yl)azetidin-3-yl]ethanone] are 91.7% and 23.6 nM.
The corresponding values for `CNc1nc(C)c(C)c2c1CN(C(=O)CC1CN(c3cccnc3)C1)C2` [Example 4, 1-[6,7-Dimethyl-4-(methylamino)-1,3-dihydro-2H-pyrrolo[3,4-c]pyridin-2-yl]-2-[1-(pyridin-3-yl)azetidin-3-yl]ethanone] are 95.8% and 1.76 nM.
Consider `CNc1nc(C)c(C)c2c1CN(C(=O)CC1CN(c3ccnc(C(F)(F)F)c3)C1)C2C` (single isomer, unassigned) [Example 44, 2-{1-[2-(trifluoromethyl)pyridin-4-yl]azetidin-3-yl}-1-[1,6,7-trimethyl-4-(methylamino)-1,3-dihydro-2H-pyrrolo[3,4-c]pyridin-2-yl]ethanone], for which the “EC50 Mean Asymptote Maximum (%)” value is reported as 107^c % and the concentration for a half-maximal effect (EC50) turned out to be 1.8 nM.
With `Cc1c2c(c(=O)n(C)c1C)CN(C(=O)CC1CN(c3cccnc3)C1)C2` [Example 1, 5,6,7-Trimethyl-2-{[1-(pyridin-3-yl)azetidin-3-yl]acetyl}-1,2,3,5-tetrahydro-4H-pyrrolo[3,4-c]pyridin-4-one], the Emax came out at 90.9% and a half-maximal response (EC50) required 8.62 nM.
As for `CNc1nc(C)c(C)c2c1CN(C(=O)C[C@@H]1C[C@H]1c1ccc(F)cc1)C2` (single isomer, unassigned) [Example 41, 1-[6,7-dimethyl-4-(methylamino)-1,3-dihydro-2H-pyrrolo[3,4-c]pyridin-2-yl]-2-[trans-2-(4-fluorophenyl)cyclopropyl]ethanone], the “EC50 Mean Asymptote Maximum (%)” value is 145^c % and a half-maximal effect (EC50) was put at 783 nM.
Regarding `CNc1nc(C)c(C)c2c1CN(C(=O)CC1CN(c3ccnc(C#N)c3)C1)C2` [Example 36, 4-(3-{2-[6,7-dimethyl-4-(methylamino)-1,3-dihydro-2H-pyrrolo[3,4-c]pyridin-2-yl]-2-oxoethyl}azetidin-1-yl)pyridine-2-carbonitrile], the Emax was 95.6% and the EC50 came to 5.46 nM.
With `Cc1nc(OC(F)F)c2c(c1C)CN(C(=O)CC1CN(c3cncnc3)C1)C2` [Example 56, 1-[4-(difluoromethoxy)-6,7-dimethyl-1,3-dihydro-2H-pyrrolo[3,4-c]pyridin-2-yl]-2-[1-(pyrimidin-5-yl)azetidin-3-yl]ethanone], the Emax stood at 109% and the concentration giving a half-maximal response (EC50) came to 150 nM.

(Values after US11198692B2, “Dihydro-pyrrolo-pyridine derivatives” (Pfizer Inc., priority 2017, dated 2021).)
